Data from patent US20240123080A1, “CYTOTOXIC COMPOUNDS AND CONJUGATES THEREOF” (Seagen Inc., priority 2022, published 2024).
*1 amine or outer side, *2 acyl side, *3 side chain or, on linkers, in order; H or OH if unused. Where a SMILES comes first, the peptide text is derived from it. [ ]: non-standard residue; d: D form. The star is where a group is joined. ξ: configuration not given here. Dolaproine = CO[C@@H]([C@@H]1CCCN1)[C@@H](C)C(=O)O; Hexanoyl(6-maleimido) = O=C1C=CC(=O)N1CCCCCC(=O)*; Propanoyl(3-maleimido) = O=C1C=CC(=O)N1CCC(=O)*; Dil = CC[C@H](C)[C@H](NC)[C@@H](CC(=O)O)OC; PABC = O=C(OCc1ccc(N[*:1])cc1)[*:2]; Val(3-OH) = CC(C)(O)[C@H](N)C(=O)O; Doe = c1ccc(C[C@H](N*)c2nccs2)cc1; X1 = C[C@@H](N*)[C@@H](O)c1ccccc1; NMeT = CN[C@H](C(=O)O)[C@@H](C)O; Cit = NC(=O)NCCC[C@H](N)C(=O)O; Phe(ol) = N[C@H](CO)Cc1ccccc1; NHPhenethyl = c1ccc(CCN*)cc1; X3 = CN1C(=O)OC[C@@H]1C(=O)*; NMeV = CN[C@H](C(=O)O)C(C)C; X2 = CN(C)[C@@H](CO)C(=O)*; NMeS = CN[C@@H](CO)C(=O)O; ξαMeS = CC(N)(CO)C(=O)O

Assays:
Sprague Dawley rats = assay: In vivo rat safety study of non-binding (h00) ADCs, hematology and clinical chemistry; conditions: ADC of the Drug-Linker
Protocol: In vivo rat safety studies were done in naive female Sprague Dawley rats (Envigo). Studies had 3 animals/group/timepoint and included a vehicle control group (1×PBS pH 7.4). Animals were administered a single dose of 15 or 80 mg/kg of an h00 ADC (DAR=4) via intravenous injection. Blood was drawn at days 5 and day 8. Blood was sampled under isoflurane anesthesia via the jugular vein for periodic hematology analysis on the Sysmex XT-2000iV. At necropsy, blood was collected from the caudal vena cava for hematology and clinical chemistry panels. Clinical chemistry was analyzed on a Beckman Coulter AU680.

[1] = LogD, miniaturized 1-octanol/pH 7.4 buffer shake flask method, LC/MS/MS; format: physicochemical
Protocol: The LogD (distribution coefficient) of the compounds was measured using a miniaturized 1-octanol/pH 7.4 buffer shake flask method followed by LC/MS/MS analysis. Values were determined by measuring the compound partitioned in the organic and buffered layers.

Karpas299 NHL = assay: In vitro cytotoxicity, cell proliferation assay (CellTiter-Glo, 96 h); format: cell-based; conditions: Homo sapiens, KARPAS-299, auristatin free drug
Protocol: (§1) The cytotoxicity of free drugs and drug conjugates were measured by a cell proliferation assay employing the protocol described in Promega Corp. Technical Bulletin TB288; and Mendoza et al., 2002, Cancer Res. 62:5485-5488), the methods of which are specifically incorporated by reference herein. Briefly, an aliquot of 40 μl of cell culture containing about 400 cells in medium is deposited in each well of a 384-well, opaque-walled plate. A 10 μL aliquot of free drug or drug conjugate is added to the experimental wells and incubated for 96 h and are then equilibrated to room temperature for approximately 30 minutes whereupon a volume of CellTiter-Glo™ reagent equal to the volume of cell culture medium present in each well is added. The contents are mixed for 2 minutes on an orbital shaker to induce cell lysis and the plate is incubated at room temperature for 10 minutes to stabilize the luminescence signal for recordation.

L540cy HL = assay: as above; format: cell-based; conditions: auristatin free drug
Protocol: as §1

DEL ALCL = assay: as above; format: cell-based; conditions: auristatin free drug
Protocol: as §1

[2] = test system: DEL, Karpas299, and L540cy cell lines; assay: Average cytotoxicity of DEL, Karpas299, and L540cy cell lines; format: cell-based; conditions: read-out: Avg IC50 Free drug
Protocol: as §1
Tolerability of an ADC comprising the compound of Example 8 of the present application was compared to tolerability of ADCs comprising the known compounds MMAE and MMAF. Without being bound by theory, the improvements in tolerability are believed to be related to reduced toxicities in the bone marrow and in the liver that are a result of the OH moieties on the compound of Example 8.

SKMEL5 = assay: In vitro cytotoxicity of auristatin ADCs and free drugs (CellTiter-Glo, 96 h); format: cell-based; conditions: Homo sapiens, SK-MEL-5, 96 h, read-out: IC50, SKMEL5
Protocol: (§2) Cancer cells were counted and plated in 40 μL complete growth media in 384-well, white-walled tissue culture treated plates (Corning). Cell plates were incubated at 37° C. and with 5% CO2 overnight to allow the cells to equilibrate. Stock solutions containing ADCs or free drugs were serially diluted in RPMI-1640+20% fetal bovine serum (FBS). 10 μL of each concentration were then added to each cell plate in duplicate. Cells were then incubated at 37° C. and with 5% CO2 for 96 hours, upon which, the cell plates were removed from the incubator and allowed to cool to room temperature for 30 minutes prior to analysis. CellTiter-Glo® luminescent assay reagent (Promega Corporation, Madison, WI) was prepared according to Promega's protocol. 10 μL of CellTiter-Glo® were added to assay plates using a Formulatrix Tempest liquid handler (Formulatrix) and the plates were protected from light for 30 minutes at room temperature. The luminescence of the samples was measured using an EnVision Multimode plate reader (Perkin Elmer, Waltham, MA). Raw data were analyzed in Graphpad Prism (San Diego, CA) using a nonlinear, 4-parameter curve fit model [Y=Bottom+(Top-Bottom)/(1+10^((LogEC50−X)*HillSlope))]. Results are reported as IC50 values, which are defined as the concentration of ADC or free drug required to reduce cell viability to 50%.

A2058 = assay: as above; format: cell-based; conditions: Homo sapiens, A2058, 96 h, read-out: IC50, A2058
Protocol: as §2

CALU1 = assay: as above; format: cell-based; conditions: Homo sapiens, Calu-1, 96 h, read-out: IC50, CALU1
Protocol: as §2

SKMEL28 = assay: as above; format: cell-based; conditions: Homo sapiens, SK-MEL-28, 96 h, read-out: IC50, SKMEL28
Protocol: as §2

Compound	logD [1]	IC50 (Karpas299 NHL)	IC50 (L540cy HL)	IC50 (DEL ALCL)	other results
CC[C@H](C)[C@@H]([C@@H](CC(=O)N1CCC[C@H]1[C@H](OC)[C@@H](C)C(=O)N[C@@H](Cc1ccccc1)c1nccs1)OC)N(C)C(=O)[C@@H](NC(=O)[C@H](CO)N(C)C(=O)OCc1ccc(NC(=O)[C@H](CCC(=O)O)NC(=O)[C@H](C)NC(=O)[C@@H](CC(C)C)NC(=O)CCN2C(=O)C=CC2=O)cc1)[C@@H](C)CC [Example 80] ({Propanoyl(3-maleimido)}-[dL]AE[PABC][NMeS]I[Dil][Dolaproine]-Doe)	–	–	–	–	Tolerated at 80 mg/kg in rats (Sprague Dawley rats): Yes
CC[C@H](C)[C@@H]([C@@H](CC(=O)N1CCC[C@H]1[C@H](OC)[C@@H](C)C(=O)N[C@H](CO)Cc1ccccc1)OC)N(C)C(=O)[C@@H](NC(=O)[C@H](CO)N(C)C(=O)OCc1ccc(NC(=O)[C@H](CCCNC(N)=O)NC(=O)[C@@H](NC(=O)CCCCCN2C(=O)C=CC2=O)C(C)C)cc1)C(C)C [Example 61] ({Hexanoyl(6-maleimido)}-V[Cit][PABC][NMeS]V[Dil][Dolaproine][Phe(ol)])	–	–	–	–	Tolerated at 80 mg/kg in rats (Sprague Dawley rats): Yes
CC[C@H](C)[C@@H]([C@@H](CC(=O)N1CCC[C@H]1[C@H](OC)[C@@H](C)C(=O)NCCc1ccccc1)OC)N(C)C(=O)[C@@H](NC(=O)[C@H](CO)N(C)C(=O)OCc1ccc(NC(=O)[C@H](CCC(=O)O)NC(=O)[C@H](C)NC(=O)[C@@H](CC(C)C)NC(=O)CCN2C(=O)C=CC2=O)cc1)C(C)C [Example 78] ({Propanoyl(3-maleimido)}-[dL]AE[PABC][NMeS]V[Dil][Dolaproine]-NHPhenethyl)	–	–	–	–	Tolerated at 80 mg/kg in rats (Sprague Dawley rats): Yes
CC[C@H](C)[C@@H]([C@@H](CC(=O)N1CCC[C@H]1[C@H](OC)[C@@H](C)C(=O)N[C@H](CO)Cc1ccccc1)OC)N(C)C(=O)[C@@H](NC(=O)[C@H](CO)N(C)C)C(C)C [Example 8] (X2-V[Dil][Dolaproine][Phe(ol)])	1.6	1.4 nM	6.6 nM	0.7 nM	IC50 [2]: 2.9 nM
CC[C@H](C)[C@@H]([C@@H](CC(=O)N1CCC[C@H]1[C@H](OC)[C@@H](C)C(=O)N[C@H](CO)Cc1ccccc1)OC)N(C)C(=O)[C@@H](NC(=O)[C@H]1COC(=O)N1C)C(C)C [Example 45] (X3-V[Dil][Dolaproine][Phe(ol)])	1.5	40.8 nM	272 nM	8.5 nM	–
CC[C@H](C)[C@@H]([C@@H](CC(=O)N1CCC[C@H]1[C@H](OC)[C@@H](C)C(=O)N[C@H](C)[C@@H](O)c1ccccc1)OC)N(C)C(=O)[C@@H](NC(=O)C(C)(N)CO)C(C)C (some centres unmarked) [Example 33] (H-[ξαMeS]V[Dil][Dolaproine]-X1)	3.2	1.7 nM	6.4 nM	1.8 nM	–
CC[C@H](C)[C@@H]([C@@H](CC(=O)N1CCC[C@H]1[C@H](OC)[C@@H](C)C(=O)N[C@@H](Cc1ccccc1)c1nccs1)OC)N(C)C(=O)[C@@H](NC(=O)[C@H](CO)NC)C(C)C [Example 19] (H-[NMeS]V[Dil][Dolaproine]-Doe)	2.4	0.5 nM	2.5 nM	0.4 nM	–
CC[C@H](C)[C@@H]([C@@H](CC(=O)N1CCC[C@H]1[C@H](OC)[C@@H](C)C(=O)N[C@H](C)[C@@H](O)c1ccccc1)OC)N(C)C(=O)[C@@H](NC(=O)[C@@H](N)C(C)(C)O)C(C)C [Example 28] (H-[Val(3-OH)]V[Dil][Dolaproine]-X1)	2	9.4 nM	28 nM	7.8 nM	–
CC[C@H](C)[C@@H]([C@@H](CC(=O)N1CCC[C@H]1[C@H](OC)[C@@H](C)C(=O)N[C@H](CO)Cc1ccccc1)OC)N(C)C(=O)[C@@H](NC(=O)[C@H](CO)N(C)C)C(C)C [Ex. 8 (compound 1.1)] (X2-V[Dil][Dolaproine][Phe(ol)])	–	–	–	–	IC50 (SKMEL5): 2 nM; IC50 (A2058): 2 nM; IC50 (CALU1): 5 nM; IC50 (SKMEL28): 4 nM
CC[C@H](C)[C@@H]([C@@H](CC(=O)N1CCC[C@H]1[C@H](OC)[C@@H](C)C(=O)NCCc1ccccc1)OC)N(C)C(=O)[C@@H](NC(=O)[C@H](CO)NC)C(C)C [Example 18] (H-[NMeS]V[Dil][Dolaproine]-NHPhenethyl)	1.9	2.3 nM	16 nM	0.6 nM	–
CC[C@H](C)[C@@H]([C@@H](CC(=O)N1CCC[C@H]1[C@H](OC)[C@@H](C)C(=O)N[C@H](C)[C@@H](O)c1ccccc1)OC)N(C)C(=O)[C@@H](NC(=O)[C@H](CO)NC)C(C)C [Example 17] (H-[NMeS]V[Dil][Dolaproine]-X1)	1.1	7.6 nM	16.2 nM	2.5 nM	–
CC[C@H](C)[C@@H]([C@@H](CC(=O)N1CCC[C@H]1[C@H](OC)[C@@H](C)C(=O)N[C@@H](Cc1ccccc1)c1nccs1)OC)N(C)C(=O)[C@@H](NC(=O)[C@H](CO)N(C)C(=O)OCc1ccc(NC(=O)[C@H](CCC(=O)O)NC(=O)[C@H](C)NC(=O)[C@@H](CC(C)C)NC(=O)CCN2C(=O)C=CC2=O)cc1)C(C)C [Example 79] ({Propanoyl(3-maleimido)}-[dL]AE[PABC][NMeS]V[Dil][Dolaproine]-Doe)	–	–	–	–	Tolerated at 80 mg/kg in rats (Sprague Dawley rats): No
CC[C@H](C)[C@@H]([C@@H](CC(=O)N1CCC[C@H]1[C@H](OC)[C@@H](C)C(=O)N[C@@H](Cc1ccccc1)C(=O)O)OC)N(C)C(=O)[C@@H](NC(=O)[C@@H](NC)C(C)C)C(C)C [MMAF, monomethyl auristatin F, reference compound] (H-[NMeV]V[Dil][Dolaproine]F-OH)	0.03	41 nM	47 nM	44 nM	IC50 [2]: 44 nM
CC[C@H](C)[C@@H]([C@@H](CC(=O)N1CCC[C@H]1[C@H](OC)[C@@H](C)C(=O)N[C@@H](Cc1ccccc1)c1nccs1)OC)N(C)C(=O)[C@@H](NC(=O)[C@@H](N)C(C)(C)O)C(C)C [Example 31] (H-[Val(3-OH)]V[Dil][Dolaproine]-Doe)	3.4	1.7 nM	4.7 nM	2.1 nM	–
CC[C@H](C)[C@@H]([C@@H](CC(=O)N1CCC[C@H]1[C@H](OC)[C@@H](C)C(=O)N[C@H](CO)Cc1ccccc1)OC)N(C)C(=O)[C@@H](NC(=O)[C@@H](NC)[C@@H](C)O)C(C)C [Example 13] (H-[NMeT]V[Dil][Dolaproine][Phe(ol)])	1.4	2.2 nM	5 nM	1.2 nM	–
